# “Also recorded” adds a separate entry of the source. Like-named read-outs stand apart in the source and are kept apart here.
# How the values were obtained:
# [1] = test system: PG formation; conditions: cited from earlier work
# [2] = cited from earlier work
# [3] = test system: NZB/W mouse; assay: NZB/W mouse, animal model for Sjogren's syndrome; type: in vivo
# [4] = test system: Sjogren's syndrome; conditions: vitamin C 7.5 g/day for a year; person
# Experimental: Associated with these disorders were brittle, frequently cracking nails and hypersensitivity of the hands to soaps and detergents. […] 50 mg/day pyridoxine (desirable for normal EFA metabolism) and 6×0.6 ml Evening Primrose oil capsules per day were added to the regime.
# [5] = test system: opiate receptor; conditions: cited from earlier work
# [6] = test system: conversion of DGLA to 1 series PGs (human platelets); assay: tissue or blood; type: cell-based; conditions: for effect on formation of 1 series PGs from DGLA: human platelets; for activity at 0.018 µg/mL / activity at 18 µg/mL: Homo sapiens, Platelet; for behaviour of treated normal platelets (PGE1 from DGLA): normal platelets compared with schizophrenic platelets
# Experimental: (§1) The method is given in detail later herein but briefly human platelets are incubated with radioactive DGLA or arachidonic acid. The PGs produced during incubation are extracted by conventional means and separated by thin layer chromatography, and the amount of radioactivity appearing in each PG or related substance is counted. PGE 1, PGF 1α and thromboxane B1 from DGLA, and PGE 2, PGF 2α and thromboxane B2 from AA are estimated.
# (§2) One day expired (2 days old) human platelets were obtained and used within 48 hours of expiration. One unit was centrifuged at 1000 g for 15 minutes and the supernatent drawn off. The platelet pellet was resuspended in Tris-NaCl-EDTA buffer, made up of 0.15 M NaCl, 0.15 M Tris HCl at pH 7.4 and 0.077 M NaEDTA (90:8:2 v/v/v). The platelets were recentrifuged, the supernatant removed and the pellet resuspended in Krebs-Henseleit buffer (without calcium) at pH 7.4. The washed platelets suspension contained about 1-2% red blood cells. All glassware used in the preparation of the platelets was siliconized.
# Four equal sized 1 ml aliquots of the platelet suspension, containing 10^9 platelets/ml were incubated with e.g. 0.5 μCi ^14 C-DGLA for five minutes. At the beginning of the incubation the material under test was added to the suspensions. The reaction was stopped after five minutes by addition of 1/10 volume of 10% formic acid. The suspension was then extracted three times with ethyl acetate and the fractions pooled and dried under vacuum. The extract was then taken up with 5 ml chloroform/methanol (2/1, v/v). Recovery of radioactive material in the extract was checked by taking 50 μl of the chloroform/methanol and counting by liquid scintillation.
# The chloroform/methanol extract was then reduced in volume to 1 ml under dry prepurified nitrogen. Thin layer chromatography was carried out on 500 μg precoated, prescored silica gel G Uniplates (Analtech). Plates were activated by heating to 100° C. for 1 hour immediately prior to use. The solvent system was chloroform:methanol:acetic acid:water (90:8:1:0:8). Reference compounds (PGsE1 and F1α and thromboxane B1) were run at the same time and visualized by phosphomolybdic acid spray followed by brief heating. The bands on the plates corresponding to the reference PGE1, PFG1α and TXB1 were scraped off and eluted with 20 ml acetone. Each elution was then evaporated to dryness and counted by liquid scintillation (Beckman 100 LS counter).
# Three experiments were performed with DGLA and three with AA.
# [7] = test system: conversion of AA to 2 series PGs (human platelets); type: cell-based
# Experimental: as §1, §2
# Four equal sized 1 ml aliquots of the platelet suspension, containing 10^9 platelets/ml were incubated with e.g. 0.5 μCi ^14 C-DGLA for five minutes. […]
# The chloroform/methanol extract was then reduced in volume to 1 ml under dry prepurified nitrogen. […] Each elution was then evaporated to dryness and counted by liquid scintillation (Beckman 100 LS counter). […]
# [8] = read-out: PGE1 formation (precursor DGLA), percentage of control counts
# [9] = read-out: TXB1 formation (precursor DGLA), percentage of control counts
molecule,measurement,setting,value
"CCO [Ethyl alcohol, ethyl alcohol]",effect on formation of thromboxane B2,"[1]; extremely high levels of ethanol, conversion of AA",can block the formation of thromboxane B2
same,concentration of alcohol in human plasma at which signs of mild intoxication first appear,[2]; human plasma,20-30 mg %
same,"concentration which produces ""blind drunkenness""",[2]; in vivo,300 mg %
CCCCC[C@H](O)/C=C/[C@H]1[C@H](O)CC(=O)[C@@H]1CCCCCCC(=O)O [PGE1],effect on immunological abnormalities of the strain,[3],can correct many of the immunological abnormalities of the strain
"O=C1O[C@H]([C@@H](O)CO)C(O)=C1O [Vitamin C, ascorbic acid]",effect on PG formation,"[1]; high concentrations of vitamin C, reports in the literature",both enhancing and reducing PG formation
same,"effect on well-being, dry eyes and mouth",[4],subjective sense of well-being and some slight improvement in the dry eyes and mouth
CN1CC[C@@]23CCCC[C@@H]2[C@@H]1Cc1ccc(O)cc13 [d-levorphanol],binding to and activation of the opiate receptor,[5],does not
same,binding to and activation of the opiate receptor,[5]; listed as d-isomer of levorphanol,devoid of opiate activity
same,effect on conversion of DGLA to PGE1,[6]; d-isomer of levorphanol,no such effect
same,effect on formation of 1 series PGs from DGLA,[6],not shown by d-levorphanol
CN1CC[C@]23CCCC[C@H]2[C@H]1Cc1ccc(O)cc13 [l-levorphanol],binding to and activation of the opiate receptor,[5],binds to and activates the opiate receptor
same,effect on formation of 2 series PGs from AA,[7],no effect on production of 2-series PGs from AA; also recorded: without blocking the formation of 2 series PGs from AA
same,activity at 0.018 µg/mL,[6]; [8],23%
same,activity at 18 µg/mL,[6]; [8],72%
same,activity at 0.018 µg/mL,[6]; [9],20%
same,activity at 18 µg/mL,[6]; [9],76%
same,effect on formation of 1 series PGs from DGLA,[6],reduced formation of 1-series PGs; also recorded: able to block the formation of 1 series PGs from DGLA
same,effect on conversion of DGLA to PGE1,[6]; l-levorphanol 100 μg/ml,inhibiting conversion of DGLA to PGE1
same,behaviour of treated normal platelets (PGE1 from DGLA),[6],behave like schizophrenic platelets
same,imitation of schizophrenic defect of conversion of DGLA to PGE1 in normal platelets,[6]; normal platelets incubated with l-levorphanol,can be limited in normal platelets by incubation with l-levorphanol
CCCCC/C=C\C/C=C\C/C=C\CCCCC(=O)O [γ-linolenic acid],effect on immunological abnormalities of the strain,[3],can correct many of the immunological abnormalities of the strain
"β-endorphin: natural opioid (YGGFMTSEKSQTPLVTLFKNAIIKNAYKKGE; Beta-endorphin; UniProt P01189 237-267, looked up)",effect on formation of 1 series PGs from DGLA,[6],effect similar to levorphanol
same,behaviour of treated normal platelets (PGE1 from DGLA),[6],behave like schizophrenic platelets

# Source: patent USRE31836E, “Pharmaceutical and dietary composition” (priority 1984, dated 1985)
